Test results from patent publication US20100022559A1, “BISOXIMES AS FUNGICIDES” (BAYER CROPSCIENCE AG, priority 2006, published 2010).

Experiment: logP determination by HPLC on a reversed-phase column (C 18), EEC Directive 79/831 Annex V.A8
Assay type: physicochemical
Conditions: HCO2H; HPLC reversed-phase column (C 18), 43° C.; read-out: logP (HCO2H)
Protocol: The stated logP values were determined in accordance with EEC Directive 79/831 Annex V.A8 by HPLC (high performance liquid chromatography) on a reversed-phase column (C 18). Temperature: 43° C.

SMILES | chromatographic logP
C/C(=N\OC[Si](C)(C)CO/N=C(\C)c1cccc(C)n1)c1cccc(C)n1 [(1E,1E′)-1-(6-methylpyridin-2-yl)ethanone O,O′-[(dimethylsilanediyl)bis(methylene)]oxime] | 4.5

Same assay, conditions: method marker [a] (footnote not shown); isomer A / isomer B / isomer mixture as noted in the cell

logP | SMILES
2.31^[a] | CC(=NOCC(C)CON=C(C)c1cccc(C)n1)c1cccc(C)n1 (stereo not drawn) [Compound 1]
1.66^[a] | CC(=NOCC(C)(O)CON=C(C)c1cccc(C)n1)c1cccc(C)n1 (stereo not drawn) [Compound 12]
2.66^[a] | CC(=NOCCCON=C(C)c1cccc(C)n1)c1cccc(C)n1 [Compound 14]

Same assay, conditions: method marker [b]; isomer A / isomer B / isomer mixture as noted in the cell

logP | SMILES
1.81^[b] | Cc1cc(C)nc(/C(N)=N/OCC(C)CO/N=C(\N)c2nc(C)cc(C)n2)n1 (stereo not drawn) [Compound 10]
1.32^[b] | CC(=NOCCON=C(C)c1cccnc1)c1cccnc1 [Compound 32]

Continued, molecule first:

SMILES | logP
C=C(CON=C(C)c1cccc(C)n1)CON=C(C)c1cccc(C)n1 [Compound 9] | 3.33^[b]
CC(=NOCCCCCON=C(C)c1cccc(C)n1)c1cccc(C)n1 [Compound 11] | 3.85^[b]
CC(=NOCC1(CON=C(C)c2cccc(C)n2)CC1)c1cccc(C)n1 [Compound 15] | 3.44^[b]
C=C(CON=C(C)c1cccc(C)n1)CON=C(C)c1nc(C)c(C)s1 [Compound 18] | 4.41^[b]
C=C(CON=C(C)c1cccc(C)n1)CON=C(N)c1cccc(C)n1 [Compound 23] | 2.75^[b]
C=C(CO/N=C(\N)c1csc(C)n1)CO/N=C(\N)c1csc(C)n1 [Compound 27] | 3.19^[b]
C=C(CON=C(C)c1ccc(Cl)nc1)CON=C(C)c1ccc(Cl)nc1 [Compound 57] | 4.38^[b]

Same assay, conditions: method marker [c] (footnote not shown)

logP | SMILES
5.44^[c] | CC(=NOCC(C)CON=C(C)c1cccc(C)n1)c1cccc(C)n1 (stereo not drawn) [Compound 1]

Same assay, conditions: reversed-phase HPLC column (C 18); HCO2H; HPLC reversed-phase column (C 18), 43° C.; read-out: logP (HCO2H)

chromatographic logP | SMILES
3.33 | CC(=NOCC(C)(C)CO/N=C(\C)c1cccc(C)n1)c1cc(C)cc(C)n1 [(1E/Z)-1-(4,6-dimethylpyridin-2-yl)ethanone O-[2,2-dimethyl-3-({[(1E)-1-(6-methylpyridin-2-yl)ethylidene]amino}oxy)propyl]oxime]
2.2 | C/C(=N\OCC(=O)CO/N=C(\C)c1cccc(C)n1)c1cccc(C)n1 [(2E,9E)-2,10-bis(6-methylpyridin-2-yl)-4,8-dioxa-3,9-diazaundeca-2,9-dien-6-one]

The remaining lines, values behind:

SMILES | chromatographic logP
C/C(=N\OCC(C)CO/N=C(\C)c1cccc(C)n1)c1cccc(C)n1 [1-(6-methylpyridin-2-yl)ethanone O,O′-(2-methylpropane-1,3-diyl)oxime] | 2.31
C/C(=N\OCC1(CO/N=C(\C)c2ccc(C)c(C)n2)CC1)c1cc(C)cc(C)n1 [(1E)-1-(4,6-dimethylpyridin-2-yl)ethanone O-({1-[({[(1E)-1-(5,6-dimethylpyridin-2-yl)ethylidene]amino}oxy)methyl]cyclopropyl}methyl)oxime] | 2.61
CCC1=NOC(CO/N=C(\C)c2cccc(C)n2)(CO/N=C(\C)c2cccc(C)n2)C1 [(1E,1′E)-1-(6-methylpyridin-2-yl)ethanone O,O′-[(3-ethyl-4,5-dihydroisoxazole-5,5-diyl)bis(methylene)]oxime] | 2.68
C/C(=N\OCC(CO/N=C(\C)c1cccc(C)n1)=NO)c1cccc(C)n1 [(2E,9E)-2,10-bis(6-methylpyridin-2-yl)-4,8-dioxa-3,9-diazaundeca-2,9-dien-6-one oxime] | 1.91

Same assay, conditions: value marked [b]

logP | SMILES
2.70^[b] (isomer A) | Cc1cc(C)nc(C(N)=NOC/C=C/CON=C(N)c2cc(C)cc(C)n2)c1 (single isomer, unassigned) [compound 771]
4.22^[b] | CC(=NOc1nc(Cl)nc(ON=C(C)c2cccc(C)n2)c1Cl)c1cccc(C)n1 (single isomer, unassigned) [compound 780]

The remaining lines, values behind:

SMILES | logP
CC(=NOc1nc(Cl)nc(ON=C(C)c2cccc(C)n2)c1Cl)c1cccc(C)n1 (single isomer, unassigned) [compound 779] | 4.62^[b]
CC(=NOCC(C)(C)CON=C(c1ccccc1)c1cccc(C)n1)c1cccc(C)n1 (single isomer, unassigned) [compound 879] | 4.61^[b]

Same assay, conditions: value marked [c]

logP | SMILES
5.09^[c] | CC(=NOc1nc(Cl)nc(ON=C(C)c2cccc(C)n2)c1Cl)c1cccc(C)n1 (single isomer, unassigned) [compound 779]
4.88^[c] | CC(=NOc1nc(Cl)nc(ON=C(C)c2cccc(C)n2)c1Cl)c1cccc(C)n1 (single isomer, unassigned) [compound 780]
4.52^[c] | CC(=NOCC(C)(C)CON=C(c1ccccc1)c1cccc(C)n1)c1cccc(C)n1 (single isomer, unassigned) [compound 879]
